According to patent publication US6740335B1, “Liposomal camptothecin formulations” (priority 1997, dated 2004):
Counter-ions that a name gives are not always drawn.

How the values were obtained:
A549 (lung carcinoma) = experiment: 3H-thymidine incorporation cytotoxicity assay, A549; format: cell-based; settings: Homo sapiens, A549, 42 h; read-out: Median IC50
Procedure: (§1) In vitro efficacy screening has been performed using GI147211 and liposomal formulations of GI147211. […] Standard tumor cell-based cytototoxicity assays assessing ^3H-thymidine incorporation were performed.
(§2) Tumor cells were seeded into 96-well tissue culture plates (1×10^4 cells/well)≡4 h prior to experimentation. […] Positive and negative (Tris treated) control groups were included on each assay plate. Tumor cells were then labeled with 0.25 μCi of [methyl-^3H] thymidine and incubated for 42 h under tissue culture conditions (37° C., 5% CO2, 100% relative humidity), except for C6, U251, A673 and B16-F1 cells which were incubated for 24 h. Cells were then lysed, harvested onto glass-fiber filters and unincorporated [methyl-^3H] thymidine removed by filter washing. Filters were processed for scintillation counting and cpm-^3H/well determined. […] Data are presented from multiple sets of experimentation, involving multiple liposomal formulations of GI147211.

U937 (Lymphoma) = experiment: 3H-thymidine incorporation cytotoxicity assay, U937; format: cell-based, human; settings: Homo sapiens, U-937; U937, 42 h; read-out: Median IC50
Procedure: as §1, §2

LS-513 (Cecum) = experiment: 3H-thymidine incorporation cytotoxicity assay, LS-513; format: cell-based, human; settings: Homo sapiens, LS-513, 42 h; read-out: Median IC50
Procedure: as §1, §2

MCF-7 (Breast) = experiment: 3H-thymidine incorporation cytotoxicity assay, MCF-7; format: cell-based, human; settings: Homo sapiens, MCF7; MCF-7, 42 h; read-out: Median IC50
Procedure: as §1, §2

ES2 Tumor Xenograft = experiment: Repeat dose efficacy at equal toxic doses, ES2 xenograft; settings: ES2, 14 mg/kg, days 1, 8 and 15
Procedure: (§3) In all the studies performed, subcutaneous tumors implanted on the anterior flank of nude mice were allowed to grow to an established size of 200+/−50 mm^3 prior to dosing drugs.
(§4) Drugs were dosed on days 1,8 and 15.

[1] = test system: KBV (oralpharyngial carcinoma, vincristine resistant phenotype); experiment: 3H-thymidine incorporation cytotoxicity assay, KBV; format: cell-based, human; settings: Homo sapiens, 42 h, read-out: Median IC50
Procedure: as §1, §2

[2] = Plasma pharmacokinetics in Sprague-Dawley rats after IV dose; settings: rat, in vivo
Procedure: The pharmacokinetics were then compared for free drug and membrane entrapped GI147211 liposomes dosed at 5 mg/kg in Sprague Dawley rats. Rats were dosed at 1 mg/kg to compare free GI147211 to passive and actively loaded liposomes.
Pharmacokinetic studies were carried out on various liposomal formulations of GI147211 in rats and mice by IV bolus administration. Plasma samples were precipitated with acetonitrile and the supematant for each sample was analyzed by reverse phase HPLC using isocratic elution and monitoring fluorescence. […] Concentration values were determined for unknown samples and quality control samples based on interpolation using a linear fit of the standard samples. In each study the average plasma concentration at each time point was calculated and utilized in the pharmacokinetic analysis. Noncompartmental analysis were carried out using WinNonlin™ (Standard Edition, version 1.5 ©, Scientific Consulting, Inc.) and the following parameters were calculated: the maximum concentration extrapolated at zero time (Cmax), the area under the curve from zero to infinite time (AUC total), the terminal phase half life (t½), the clearance rate (C1), and the volume of distribution at steady state (Vss).

HT29 human colon tumor = experiment: Xenograft efficacy at identical dose, HT29; format: in vivo; settings: for Log 10 Cell Kill / T-C (time to reach 1,000% Tumor Volume, treated vs control): QD7 × 3; for % TGI: QD7 × 3, day 26
Procedure: as §3
The xenograft models included the HT29 and SW48 human colon tumor lines, and the KB and KBV head-neck tumors. Drugs were dosed at either 6 or 9 mg/kg intravenously, on a weekly schedule for 3 consecutive weeks. In the SW48 xenograft study, the animals received a total of two cycles of therapy (6 injections), with a 10 day recovery period separating the two therapeutic courses. In the HT29 xenograft study a 12 and 14 mg/kg dose group was added.

MDR + , KBV Xenograft = experiment: Repeat dose efficacy at equal toxic doses, KBV xenograft; format: in vivo, nude mice; settings: days 1, 8 and 15
Procedure: as §4

U251 (Glioblastoma) = experiment: 3H-thymidine incorporation cytotoxicity assay, U251; format: cell-based, human; settings: Homo sapiens, U-251; U251, 24 h; read-out: Median IC50
Procedure: as §1, §2

LOX (melanoma) = experiment: 3H-thymidine incorporation cytotoxicity assay, LOX; format: cell-based, human; settings: Homo sapiens, 42 h, read-out: Median IC50
Procedure: as §1, §2

MDA-MB-468 (Breast) = experiment: 3H-thymidine incorporation cytotoxicity assay, MDA-MB-468; format: cell-based, human; settings: Homo sapiens, MDA-MB-468, 42 h; read-out: Median IC50
Procedure: as §1, §2

BT-20 (Breast) = experiment: 3H-thymidine incorporation cytotoxicity assay, BT-20; format: cell-based, human; settings: Homo sapiens, BT-20, 42 h; read-out: Median IC50
Procedure: as §1, §2

With `CCC1(O)C(=O)OCc2c1cc1n(c2=O)Cc2c-1nc1cc3c(cc1c2CN1CCN(C)CC1)OCCO3` (stereo in doubt) [GI147211, 7-(4-methylpiperazinomethylene)-10,11-ethylenedioxy-20(S)-camptothecin dihydrochloride] the IC50 (A549 (lung carcinoma)) was 6.94 ng/mL, the IC50 (U937 (Lymphoma)) was 4.22 ng/mL and the IC50 (LS-513 (Cecum)) was 4.89 ng/mL. For the same compound, the IC50 (MCF-7 (Breast)) was 44.1 ng/mL, the Cures (ES2 Tumor Xenograft) was 1 and the “Log Cell Kill” value (ES2 Tumor Xenograft) was 2.14. The “Maximum Body Weight loss” value (ES2 Tumor Xenograft) was 9%, the “T − C (to reach 400% tumor volume increase)” value (ES2 Tumor Xenograft) was 27 days and the “Toxic Deaths” value (ES2 Tumor Xenograft) was 3. For the same compound, the IC50 [1] was 584 ng/mL, the AUC ([2]; 1 mg/kg) was 136 ng·h/mL and the Cmax ([2]; 1 mg/kg) was 100 ng/mL. For the same compound, the Vd ([2]; 1 mg/kg) was 9.23 L/kg, the clearance ([2]; 1 mg/kg) was 123 mL/min/kg and the half-life ([2]; 1 mg/kg) was 1.17 h. It also gave an AUC ([2]; 5 mg/kg) of 640 ng·h/mL, a Cmax ([2]; 5 mg/kg) of 690 ng/mL and a clearance ([2]; 5 mg/kg) of 132 mL/min/kg. The half-life ([2]; 5 mg/kg) was 2.45 h, the “Log 10 Cell Kill” value (HT29 human colon tumor; HT29, 6 mg/kg iv) was 0.753 and the “T-C (time to reach 1,000% Tumor Volume, treated vs control)” value (HT29 human colon tumor; HT29, 6 mg/kg iv) was 12 days. The “% TGI” value (HT29 human colon tumor; HT29, 6 mg/kg iv) was 48%, the “Log 10 Cell Kill” value (HT29 human colon tumor; HT29, 9 mg/kg iv) was 0.753 and the “T-C (time to reach 1,000% Tumor Volume, treated vs control)” value (HT29 human colon tumor; HT29, 9 mg/kg iv) was 12 days. The “% TGI” value (HT29 human colon tumor; HT29, 9 mg/kg iv, dihydrochloride) was 54%, the “% TGI” value (HT29 human colon tumor; HT29, 9 mg/kg iv, listed as free drug, dihydrochloride) was 54% and the “Log 10 Cell Kill” value (HT29 human colon tumor; HT29, 12 mg/kg iv) was 0.815. For the same compound, the “T-C (time to reach 1,000% Tumor Volume, treated vs control)” value (HT29 human colon tumor; HT29, 12 mg/kg iv) was 13 days, the “% TGI” value (HT29 human colon tumor; HT29, 12 mg/kg iv) was 70% and the “Log 10 Cell Kill” value (HT29 human colon tumor; HT29, 14 mg/kg iv) was 1.94. The “T-C (time to reach 1,000% Tumor Volume, treated vs control)” value (HT29 human colon tumor; HT29, 14 mg/kg iv) was 31 days, the “% TGI” value (HT29 human colon tumor; HT29, 14 mg/kg iv) was 78% and the “Days to 1000%” value (MDR + , KBV Xenograft; 12 mg/kg) was 16.15 days. The “Log 10 Cell Kill” value (MDR + , KBV Xenograft; 12 mg/kg) was 0.53, the “T − C” value (MDR + , KBV Xenograft; 12 mg/kg) was 7.58 and the “Toxic Deaths” value (MDR + , KBV Xenograft; 12 mg/kg) was 3. For the same compound, the “Days to 1000%” value (MDR + , KBV Xenograft; 14 mg/kg) was 17 days, the “Log 10 Cell Kill” value (MDR + , KBV Xenograft; 14 mg/kg) was 0.59 and the “T − C” value (MDR + , KBV Xenograft; 14 mg/kg) was 8.43. For the same compound, the “Toxic Deaths” value (MDR + , KBV Xenograft; 14 mg/kg) was 3, the “Days to 1000%” value (MDR + , KBV Xenograft; 16 mg/kg) was 17 days and the “Log 10 Cell Kill” value (MDR + , KBV Xenograft; 16 mg/kg) was 0.59. For the same compound, the “T − C” value (MDR + , KBV Xenograft; 16 mg/kg) was 8.43, the “Toxic Deaths” value (MDR + , KBV Xenograft; 16 mg/kg) was 1 and the IC50 (U251 (Glioblastoma)) was 3.11 ng/mL. For the same compound, the IC50 (LOX (melanoma)) was 1.41 ng/mL, the IC50 (MDA-MB-468 (Breast)) was 6.42 ng/mL and the IC50 (BT-20 (Breast)) was 0.0866 ng/mL.
